Like-named read-outs stand apart in the source and are kept apart here.

57 compounds from paper PMC5118696, “Identification of inhibitors that dually target the new permeability pathway and dihydroorotate dehydrogenase in the blood stage of Plasmodium falciparum” (Scientific Reports, 2016) can be followed below.

The subject of assay [1] is Hyp1-NLuc Plasmodium falciparum-infected erythrocytes (new permeability pathway, NPP). In words: microbe, parasite or virus in culture. The conditions noted are these: Erythrocyte, 0.33 h, read-out: % of control remaining.
Assay [2] has the same test system. Briefly: microbe, parasite or virus in culture. As to conditions: Erythrocyte, 0.33 h, read-out: Mean RLU at 28 min (As % of DMSO control).

Consider `Cc1cc(C)cc(Nc2cc(C)nc3nc(C(F)(F)F)nn23)c1` [MMV011259], for which the activity at 2 µM in assay [1] is 98.6%; in assay [2], 101%.

Turning to `CC(C)(C)c1ccc(C2CC3=Nc4ccccc4N(C(=O)c4ccccc4Cl)C(c4ccc(F)cc4)C3=C(O)C2)cc1` (stereo not drawn) [MMV011436], the activity at 2 µM in assay [1] and in assay [2] was 106% throughout.

With `COC(=O)c1ccc(C2C3=C(O)CC(c4ccc(F)cc4)CC3=Nc3ccccc3N2C(=O)c2ccccc2)cc1` (stereo not drawn) [MMV011438], the activity at 2 µM in assay [1] stood at 89.7%; in assay [2], 92.2%.

As to `Cc1ccc(Nc2nc(N)c3ccccc3n2)cc1Cl` [MMV011522], the activity at 2 µM in assay [1] is 99.9%; in assay [2] it was 95.7%.

Regarding `COc1ccc(C(=O)Nc2nonc2-c2ccc(OC)c(OC)c2)cc1Cl` [MMV011567], the activity at 2 µM in assay [1] and in assay [2] was 103% in each case.

For `CCOC(=O)C1CCN(C(=O)CN2C(=O)c3ccccc3C2c2c[nH]c3ccccc23)CC1` (stereo not drawn) [MMV011576], the activity at 2 µM in assay [1] and in assay [2] was 107% each time.

Take `Oc1ccccc1CN1CCN(C(c2ccccc2)c2ccccc2)CC1` [MMV011795]: the activity at 2 µM in assay [1] was determined as 113%; in assay [2], 115%.

With `Oc1ccc2ccccc2c1CNc1nc2ccccc2[nH]1` [MMV011832], the results for the activity at 2 µM in assay [1] and in assay [2] were 102% and 107%, respectively.

On to `Nc1ccc(-c2nc3cc(Oc4ccc(Oc5ccc6[nH]c(-c7ccc(N)cc7)nc6c5)cc4)ccc3[nH]2)cc1` [MMV011895], for which the activity at 2 µM in assay [1] stood at 74.5%; in assay [2], 91.2%.

In the case of `COc1cccc(Nc2nc(NCCO)c3ccccc3n2)c1` [MMV011944], the activity at 2 µM in assay [1] and in assay [2] was 101% throughout.

`Cc1cc(NC(=O)c2ccc(-c3ccccc3)cc2)no1` [MMV018984]: the activity at 2 µM in assay [1] is 110%; in assay [2] it was 111%.

As for `COCCNCC(O)Cn1c2ccc(Cl)cc2c2cc(Cl)ccc21` (stereo not drawn) [MMV019017], the activity at 2 µM was determined as 100% in assay [1] and 105% in assay [2].

In the case of `COc1cccc(-c2nn(C)c3sc(C(=O)NCCN4CCN(c5ccccc5F)CC4)cc23)c1` [MMV019064], the activity at 2 µM was 118% in assay [1] and 110% in assay [2].

In the case of `COc1ccccc1CNC(=O)CCn1c(=O)[nH]c2ccsc2c1=O` [MMV019066], the values for the activity at 2 µM in assay [1] and in assay [2] were 96.9% and 98.8%, respectively.

In the case of `CCN1CCN(c2cc(C)c3cc(NC(=O)c4ccc(OC)c(OC)c4)ccc3n2)CC1` [MMV019074], the activity at 2 µM in assay [1] was 118%; in assay [2], 104%.

Consider `Cc1cccc(Nc2nc(N)c3ccccc3n2)c1` [MMV019110], for which the activity at 2 µM in assay [1] is 106%; in assay [2], 105%.

For `CCN(Cc1ccccc1)C1CCN(Cc2cc(Br)ccc2O)CC1` [MMV019127], the values for the activity at 2 µM in assay [1] and in assay [2] were 107% and 109%, respectively.

With `COc1cccc(Nc2nc(N)c3ccccc3n2)c1` [MMV019199], the results for the activity at 2 µM in assay [1] and in assay [2] were 97.7% and 98.1%, respectively.

Take `CCOc1cccc(C(=O)Nc2ccc(-c3nc4ccccc4[nH]3)cc2)c1` [MMV019202]: the activity at 2 µM in assay [1] is 117%; in assay [2], 118%.

Consider `O=C(Nc1ccc(-c2nc3cc4ccccc4cc3[nH]2)cc1)c1cccc(Br)c1` [MMV019241], for which the activity at 2 µM was 113% in assay [1] and 103% in assay [2].

Take `COc1ccc(-n2ccnc2SCC(=O)Nc2cc(C)ccc2C)c(OC)c1` [MMV019258]: the activity at 2 µM in assay [1] was determined as 115%; in assay [2], 117%.

Turning to `Cc1sc2ncnc(Sc3nc4ccccc4[nH]3)c2c1C` [MMV019266], the activity at 2 µM in assay [1] and in assay [2] was 109% in each case.

On to `Cn1c(=O)c2cc(C(=O)NCCCN3CCCCCC3)sc2c2ccccc21` [MMV019313], for which the activity at 2 µM in assay [1] worked out at 74.1%; in assay [2], 104%.

As for `CCC1(C)CC(CCNCc2ccccc2O)(c2ccc(C)cc2)CCO1` (stereo not drawn) [MMV019406], the activity at 2 µM is 105% in assay [1] and 107% in assay [2].

On to `c1ccc2c(NCCCCCCNc3c4c(nc5ccccc35)CCCC4)c3c(nc2c1)CCCC3` [MMV019555], for which the values for the activity at 2 µM in assay [1] and in assay [2] were 109% and 101%, respectively.

`COc1ccc(N2CCN(C(CNC(=O)C3CCCCC3)c3ccc4c(c3)OCO4)CC2)cc1` (stereo not drawn) [MMV019662]: the values for the activity at 2 µM in assay [1] and in assay [2] were 114% and 103%, respectively.

Consider `O=C(Nc1ccc(N2CCN(Cc3ccccc3)CC2)cc1)c1cccs1` [MMV019670], for which the activity at 2 µM in assay [1] was found to be 112%; in assay [2], 113%.

As to `COc1ccc(C2NCCc3c2[nH]c2ccccc32)cc1CN1CCN(c2ccc(F)cc2)CC1` (stereo not drawn) [MMV019690], the results for the activity at 2 µM in assay [1] and in assay [2] were 113% and 106%, respectively.

In the case of `O=C(Nc1ccc(N2CCCCC2)c(Cl)c1)c1ccc(Br)o1` [MMV019700], the activity at 2 µM came to 118% in assay [1] and 117% in assay [2].

Take `Cc1[nH]c(-c2ccc(F)cc2)cc1C(=O)NC1CCN(Cc2ccccc2)CC1` [MMV019738]: the activity at 2 µM came out at 95.2% in assay [1] and 109% in assay [2].

As to `Cc1ccc(C)c(Cn2c(N3CCC(C(=O)NCc4cccs4)CC3)nc3ccccc32)c1` [MMV019741], the values for the activity at 2 µM in assay [1] and in assay [2] were 112% and 104%, respectively.

Consider `Cc1ccc(Cl)cc1N1CCN(CCCNC(=O)C2CCN(c3nc4ccccc4[nH]3)CC2)CC1` [MMV019746], for which the results for the activity at 2 µM in assay [1] and in assay [2] were 112% and 105%, respectively.

On to `COc1ccc(C(=O)Nc2ccc3nc(N4CCCCC4)cc(C)c3c2)cc1OC` [MMV019758], for which the activity at 2 µM in assay [1] was 108%; in assay [2], 100%.

As to `COc1cccc(C(=O)Nc2ccc(-c3nc4ccccc4[nH]3)cc2)c1` [MMV019762], the values for the activity at 2 µM in assay [1] and in assay [2] were 97.1% and 96.5%, respectively.

Consider `Cc1cc(C)c2nc(N3CCC(C(=O)NCCCN4CCC(N5CCCCC5)CC4)CC3)sc2c1` [MMV019780], for which the activity at 2 µM in assay [1] is 111%; in assay [2] it was 107%.

In the case of `Fc1ccc2[nH]c3c(NCCCN4CCOCC4)ncnc3c2c1` [MMV019871], the activity at 2 µM in assay [1] is 102%; in assay [2], 106%.

For the compound `O=C(NC1CCN(Cc2ccccc2)CC1)c1cc(C(=O)NC2CCN(Cc3ccccc3)CC2)cc(C(=O)NC2CCN(Cc3ccccc3)CC2)c1` [MMV019881], the activity at 2 µM in assay [1] is 111%; in assay [2] it was 110%.

For the compound `Clc1cc(Br)ccc1-c1ccc(CNCC2CCNCC2)o1` [MMV019918], the results for the activity at 2 µM in assay [1] and in assay [2] were 111% and 114%, respectively.

`O=C(NCCCN1CCC(N2CCCCC2)CC1)C1=Cc2cc(Br)ccc2OC1` [MMV019995]: the activity at 2 µM in assay [1] and in assay [2] was 106% throughout.

On to `Cc1cc(N(C)C)nc(Nc2ccc(NC(=O)Nc3ccccc3)cc2)n1` [MMV020243], for which the activity at 2 µM was 104% in assay [1] and 106% in assay [2].

For the compound `O=C(NC1CCN(Cc2ccccc2)CC1)c1cc(-c2ccncc2)nc2ccc(Cl)cc12` [MMV020275], the activity at 2 µM in assay [1] and in assay [2] was 115% each time.

As to `COc1ccc(-c2cn3c(C(=O)Nc4ccccc4Cl)c(-c4ccccc4)c4c3n2CCCC4)cc1` [MMV020403], the activity at 2 µM in assay [1] turned out to be 106%; in assay [2], 103%.

For the compound `CCn1c(CN2CCN(Cc3ccccc3)CC2)nc2cc(NC(=O)c3cccs3)ccc21` [MMV020439], the activity at 2 µM turned out to be 18.4% in assay [1] and 20.1% in assay [2].

Turning to `O=C(NC1CCN(Cc2ccccc2)CC1)c1cc(-c2cccnc2)nc2ccc(Cl)cc12` [MMV020490], the activity at 2 µM turned out to be 98.9% in assay [1] and 101% in assay [2].

As for `CC1CN(C(=O)c2sc3ccccc3c2Cl)CC(C)O1` (stereo not drawn) [MMV020492], the activity at 2 µM in assay [1] was found to be 102%; in assay [2], 103%.

As to `CNCCCNc1ccnc2cc(Cl)ccc12` [MMV020500], the activity at 2 µM was 97.7% in assay [1] and 98.7% in assay [2].

As for `CN(C)CCCNCc1ccc(-c2ccc(F)c(Cl)c2)o1` [MMV020505], the activity at 2 µM in assay [1] turned out to be 106%; in assay [2] it was 105%.

As for `CCN1CCN(Cc2ccc(NC(=O)c3cc4ccc5cccnc5c4[nH]3)cc2)CC1` [MMV020548], the figures for the activity at 2 µM in assay [1] and in assay [2] were 55.5% and 92.8%, respectively.

On to `CC1CCN(Cc2ccc(NC(=O)c3cc4ccc5cccnc5c4[nH]3)cc2)CC1` [MMV020549], for which the activity at 2 µM was 90.5% in assay [1] and 102% in assay [2].

With `O=C(Nc1ccc(CN2CCOCC2)cc1)c1ccc(-c2cc(Cl)ccc2Cl)o1` [MMV020651], the activity at 2 µM in assay [1] is 103%; in assay [2] it was 105%.

Turning to `CCC(O)c1ccc(Br)cc1NC(=O)c1cccc(Cl)c1` (stereo not drawn) [MMV020654], the values for the activity at 2 µM in assay [1] and in assay [2] were 105% and 113%, respectively.

For the compound `COc1ccc(-c2nonc2NC(=O)c2cccc(Cl)c2)cc1OC` [MMV020660], the results for the activity at 2 µM in assay [1] and in assay [2] were 109% and 108%, respectively.

`CC(=O)Nc1nnc(SCc2c(C)cc(C(C)(C)C)cc2C)s1` [MMV020700]: the activity at 2 µM was determined as 115% in assay [1] and 114% in assay [2].

For `COc1cc(-c2nc(-c3ccccc3)c(-c3ccccc3)[nH]2)cc(OC)c1O` [MMV020750], the figures for the activity at 2 µM in assay [1] and in assay [2] were 109% and 102%, respectively.

For the compound `Oc1ccccc1CNCC12CC3CC(CC(C3)C1)C2` [MMV020788], the activity at 2 µM in assay [1] amounted to 109%; in assay [2], 108%.

For the compound `COc1ccc(Br)cc1C1Nc2ccc3ccccc3c2C2=C1C(=O)CC(c1ccccc1)C2` (stereo not drawn) [MMV020885], the activity at 2 µM is 97.2% in assay [1] and 100% in assay [2].

For the compound `Cc1ccc(-c2nc3ccccc3o2)cc1NCc1cc(Cc2ccccc2)ccc1O` [MMV020912], the activity at 2 µM was found to be 94.7% in assay [1] and 99.2% in assay [2].
